Measured values taken from patent US12582641B2, “Sulfur-containing compound based on glutarimide skeleton and application thereof” (SHANGHAITECH UNIVERSITY, priority 2019, dated 2026).

system: MM.1S cells; assay: Proliferation inhibition (IC50) in MM.1S cells, cell viability assay; conditions: Homo sapiens, MM1.S, 72 h, read-out: IC50 (nM), proliferation inhibitory activity of MM.1S cells (half inhibitory concentration)
Method: MM.1S (B lymphoblast) was purchased from ATCC. Complete medium was RPMI1640 supplemented with 10% FBS and 1% Penicillin-Streptomycin. The cells used were identified as correct cells by STR cells, and were negative for mycoplasma through routine inspections.
IC50 values of the compounds of the present disclosure were measured using Cell Titer Blue, Cell Titer GLO, or WST reagent from Promega Company. Assay details are as follows: Cells were seeded in 100 μL RPMI1640 complete medium containing serum at a density of 15,000 cells/well. After 24 h, the inoculated cells were treated with diluted commercial inhibitor and the compounds of the present disclosure to be tested after serial dilution. After the cells were treated with the compounds of the present disclosure to be tested for 72 h, cell viability was determined after adding the cell viability detection kit listed above according to the reagent operating instructions. The negative control was DMSO, and the positive control was a commercial inhibitor, both of which were used to treat the cells through the same method as that of the compounds of the present disclosure. The growth inhibition of the compounds of the present disclosure on cells was plotted by Prism Graphpad software, and the IC50 values of the compounds of the present disclosure were calculated therefrom.
We tested the activities of the compounds of the present invention in MM.1S cell (which overexpressed IKZF1/3 and is highly sensitive to immunomodulatory drugs) through a dose-dependent manner. The cells were treated with the compounds of the present invention at 10 different successively decreasing concentrations (starting at the highest concentration of 10 μM; 5-fold serial dilutions) for 72 h, and then the cell viability determination was performed in accordance with CCK-8 reagent operating instructions. The experiment was repeated more than three times.

| Structure (SMILES) | IC50 [nM] |
| --- | --- |
| CC1(C)[C@@H]2CC[C@@]1(C)[C@@H](NCCCCCCCSc1cccc3c1C(=O)N(C1CCC(=O)NC1=O)C3=O)C2 (stereo partly drawn) [SIAIS1221177, 2-(2,6-dioxopiperidin-3-yl)-4-((7-(((1R,2S,4R)-1,7,7-trimethylbicyclo[2.2.1]heptan-2-yl)amino)heptyl)thio)isoindoline-1,3-dione] | 0.258 |
| CC(NCCCCCCSc1cccc2c1CN(C1CCC(=O)NC1=O)C2=O)C12CC3CC(CC(C3)C1)C2 (stereo not shown) [SIAIS1222139, 3-(4-((6-((1-(adamantan-1-yl)ethyl)amino)hexyl)thio)-1-oxoisoindolin-2-yl)piperidine-2,6-dione] | 0.131 |
| O=C1CCC(N2Cc3c(SCCCCCCCN4CCOCC4)cccc3C2=O)C(=O)N1 (stereo not shown) [SIAIS1220031, 3-(4-((7-morpholinoheptyl)thio)-1-oxoisoindolin-2-yl)piperidine-2,6-dione] | 0.22 ± 0.04 |
| O=C1CCC(N2Cc3c(SCc4ccc(CCN5CCCCC5)cc4)cccc3C2=O)C(=O)N1 (stereo not shown) [SIAIS1224153, 3-(1-oxo-4-((4-(2-(piperidin-1-yl)ethyl)benzyl)thio)isoindolin-2-yl)piperidine-2,6-dione] | 0.024 ± 0.002 |
| O=C1CCC(N2Cc3c(SCc4ccc(CCN5CCC6(CC5)CC6)cc4)cccc3C2=O)C(=O)N1 (stereo not shown) [SIAIS1227163, 3-(4-((4-(2-(6-azaspiro[2.5]octan-6-yl)ethyl)benzyl)thio)-1-oxoisoindolin-2-yl)piperidine-2,6-dione] | 0.021 |
| CC1(C)[C@@H]2CC[C@@]1(C)[C@@H](NCc1ccc(CSc3cccc4c3C(=O)N(C3CCC(=O)NC3=O)C4=O)cc1)C2 (stereo partly drawn) [SIAIS1221147, 2-(2,6-dioxopiperidin-3-yl)-4-((4-((((1R,2S,4R)-1,7,7-trimethylbicyclo[2.2.1]heptan-2-yl)amino)methyl)benzyl)thio)isoindoline-1,3-dione] | 0.458 |
| O=C1CCC(N2Cc3c(SCCCCCCCCN4CCCCC4)cccc3C2=O)C(=O)N1 (stereo not shown) [SIAIS1220009, 3-(1-oxo-4-((8-(piperidin-1-yl)octyl)thio)isoindolin-2-yl)piperidine-2,6-dione] | 0.12 ± 0.03 |
| O=C1CCC(N2Cc3c(SCc4cccc(CNC5CCCCC5)c4)cccc3C2=O)C(=O)N1 (stereo not shown) [SIAIS1227133, 3-(4-((3-((cyclohexylamino)methyl)benzyl)thio)-1-oxoisoindolin-2-yl)piperidine-2,6-dione] | 0.13 ± 0.07 |
| O=C1CCC(N2Cc3c(SCc4nc(CN5CCCCCC5)cs4)cccc3C2=O)C(=O)N1 (stereo not shown) [SIAIS313171, 3-(4-(((4-(azepan-1-ylmethyl)thiazol-2-yl)methyl)thio)-1-oxoisoindolin-2-yl)piperidine-2,6-dione] | 1.34 ± 0.32 |
| O=C1CCC(N2Cc3c(SCCCCCCCNC45CC(C4)C5)cccc3C2=O)C(=O)N1 (stereo not shown) [SIAIS1222123, 3-(4-((7-(bicyclo[1.1.1]pentan-1-ylamino)heptyl)thio)-1-oxoisoindolin-2-yl)piperidine-2,6-dione] | 0.053 |
| Cc1ccc(NC(=O)NCCCCCCCSc2cccc3c2CN(C2CCC(=O)NC2=O)C3=O)cc1Cl (stereo not shown) [SIAIS269068, 1-(3-chloro-4-methylphenyl)-3-(7-((2-(2,6-dioxopiperidin-3-yl)-1-oxoisoindolin-4-yl)thio)heptyl)urea] | 0.901 |
| O=C1CCC(N2Cc3c(SCCCCCCN4CCC5(CCCCC5)CC4)cccc3C2=O)C(=O)N1 (stereo not shown) [SIAIS1221121, 3-(4-((6-(3-azaspiro[5.5]undecan-3-yl)hexyl)thio)-1-oxoisoindolin-2-yl)piperidine-2,6-dione] | 0.057 |
| O=C1CCC(N2Cc3c(SCc4ccc(CNC5CCCC5)o4)cccc3C2=O)C(=O)N1 (stereo not shown) [SIAIS313148, 3-(4-(((5-((cyclopentylamino)methyl)furan-2-yl)methyl)thio)-1-oxoisoindolin-2-yl)piperidine-2,6-dione] | 0.95 ± 0.45 |
| O=C1CCC(N2Cc3c(SCCCCCCCNC4CCCCC4)cccc3C2=O)C(=O)N1 (stereo not shown) [SIAIS1220185, 3-(4-((7-(cyclohexylamino)heptyl)thio)-1-oxoisoindolin-2-yl)piperidine-2,6-dione] | 0.026 ± 0.007 |
| CN1CCCN(CCCCCCCCSc2cccc3c2CN(C2CCC(=O)NC2=O)C3=O)CC1 (stereo not shown) [SIAIS1220051, 3-(4-((8-(4-methyl-1,4-diazepan-1-yl)octyl)thio)-1-oxoisoindolin-2-yl)piperidine-2,6-dione] | 0.75 |
| O=C1CCC(N2Cc3c(SCc4nc(CN5CCSCC5)cs4)cccc3C2=O)C(=O)N1 (stereo not shown) [SIAIS355001, 3-(1-oxo-4-(((4-(thiomorpholinomethyl)thiazol-2-yl)methyl)thio)isoindolin-2-yl)piperidine-2,6-dione] | 2.51 ± 0.54 |
| O=C1CCC(N2Cc3c(SCCCCCCCNC45CC6CC(CC(O)(C6)C4)C5)cccc3C2=O)C(=O)N1 (stereo not shown) [SIAIS1222141] | 0.342 |
| O=C1CCC(N2Cc3c(SCCCO)cccc3C2=O)C(=O)N1 (stereo not shown) [SIAIS1216189, 3-(4-((3-hydroxypropyl)thio)-1-oxoisoindolin-2-yl)piperidine-2,6-dione] | 2.25 |

| Structure (SMILES) | IC50 [nM] |
| --- | --- |
| O=C1CCC(N2Cc3c(SCCCCCCCN4CCSCC4)cccc3C2=O)C(=O)N1 (stereo not shown) [SIAIS1224125, 3-(1-oxo-4-((7-thiomorpholinoheptyl)thio)isoindolin-2-yl)piperidine-2,6-dione] | 0.046 |
| O=C1CCC(N2Cc3c(SCCCCCCCN4CCC5(CCCCC5)CC4)cccc3C2=O)C(=O)N1 (stereo not shown) [SIAIS1221015, 3-(4-((7-(3-azaspiro[5.5]undecan-3-yl)heptyl)thio)-1-oxoisoindolin-2-yl)piperidine-2,6-dione] | 0.04 ± 0.01 |
| CC12CC3CC(C)(C1)CC(NC(=O)CCCCCCSc1cccc4c1CN(C1CCC(=O)NC1=O)C4=O)(C3)C2 (stereo not shown) [SIAIS1220197, N-(3,5-dimethyladamantan-1-yl)-7-((2-(2,6-dioxopiperidin-3-yl)-1-oxoisoindolin-4-yl)thio)heptanamide] | 0.578 |
| O=C1CCC(N2Cc3c(SCc4ccc(CNC56CC7CC(CC(C7)C5)C6)cc4F)cccc3C2=O)C(=O)N1 (stereo not shown) [SIAIS1227179, 3-(4-((4-(((adamantan-1-yl)amino)methyl)-2-fluorobenzyl)thio)-1-oxoisoindolin-2-yl)piperidine-2,6-dione] | 0.029 |
| O=C1CCC(N2Cc3cc(SCCCCCCCNC45CC6CC(CC(C6)C4)C5)ccc3C2=O)C(=O)N1 (stereo not shown) [SIAIS271167, 3-(5-((7-((adamantan-1-yl)amino)heptyl)thio)-1-oxoisoindolin-2-yl)piperidine-2,6-dione] | 164 |
| O=C1CCC(N2C(=O)c3cccc(SCCc4ccc(CNC56CC7CC(CC(C7)C5)C6)cc4)c3C2=O)C(=O)N1 (stereo not shown) [SIAIS1224151, 4-((4-(((adamantan-1-yl)amino)methyl)phenethyl)thio)-2-(2,6-dioxopiperidin-3-yl)isoindoline-1,3-dione] | 3.41 |
| CC1(C)CCC(NCc2ccc(CSc3cccc4c3CN(C3CCC(=O)NC3=O)C4=O)cc2)CC1 (stereo not shown) [SIAIS1227105, 3-(4-((4-(((4,4-dimethylcyclohexyl)amino)methyl)benzyl)thio)-1-oxoisoindolin-2-yl)piperidine-2,6-dione] | 0.05 ± 0.01 |
| O=C1CCC(N2C(=O)c3cccc(SCCc4ccc(CN5CCCCC5)cc4)c3C2=O)C(=O)N1 (stereo not shown) [SIAIS1224163, 2-(2,6-dioxopiperidin-3-yl)-4-((4-(piperidin-1-ylmethyl)phenethyl)thio)isoindoline-1,3-dione] | 7.41 |
| O=C1CCC(N2C(=O)c3cccc(SCCCc4ccc(CNC56CC7CC(CC(C7)C5)C6)cc4)c3C2=O)C(=O)N1 (stereo not shown) [SIAIS1227041, 4-((3-(4-(((adamantan-1-yl)amino)methyl)phenyl)propyl)thio)-2-(2,6-dioxopiperidin-3-yl)isoindoline-1,3-dione] | 0.095 |
| CN1CCN(CCCCCCCCSc2cccc3c2CN(C2CCC(=O)NC2=O)C3=O)CC1 (stereo not shown) [SIAIS1220011, 3-(4-((8-(4-methylpiperazin-1-yl)octyl)thio)-1-oxoisoindolin-2-yl)piperidine-2,6-dione] | 0.57 ± 0.21 |
| CC12CC3CC(C)(C1)CC(NCCCCCCCSc1cccc4c1CN(C1CCC(=O)NC1=O)C4=O)(C3)C2 (stereo not shown) [SIAIS1220157, 3-(4-((7-((3,5-dimethyladamantan-1-yl)amino)heptyl)thio)-1-oxoisoindolin-2-yl)piperidine-2,6-dione] | 0.02 |
| CN(CCCCCCSc1cccc2c1CN(C1CCC(=O)NC1=O)C2=O)CC12CC3CC(CC(C3)C1)C2 (stereo not shown) [SIAIS1221127, 3-(4-((6-((adamantan-1-ylmethyl)(methyl)amino)hexyl)thio)-1-oxoisoindolin-2-yl)piperidine-2,6-dione] | 0.059 |
| O=C1CCC(N2Cc3c(SCc4ccc(CNC56CC(C5)C6)cc4)cccc3C2=O)C(=O)N1 (stereo not shown) [SIAIS1222161, 3-(4-((4-((bicyclo[1.1.1]pentan-1-ylamino)methyl)benzyl)thio)-1-oxoisoindolin-2-yl)piperidine-2,6-dione] | 0.035 |
| O=C1CCC(N2Cc3c(SCc4ccc(CCCNC56CC7CC(CC(C7)C5)C6)cc4)cccc3C2=O)C(=O)N1 (stereo not shown) [SIAIS1227047, 3-(4-((4-(3-((adamantan-1-yl)amino)propyl)benzyl)thio)-1-oxoisoindolin-2-yl)piperidine-2,6-dione] | 0.028 ± 0.003 |
| CC1(C)CCC(NCCc2ccc(CSc3cccc4c3CN(C3CCC(=O)NC3=O)C4=O)cc2)CC1 (stereo not shown) [SIAIS1227103, 3-(4-((4-(2-((4,4-dimethylcyclohexyl)amino)ethyl)benzyl)thio)-1-oxoisoindolin-2-yl)piperidine-2,6-dione] | 0.02 |
| O=C1CCC(N2Cc3c(SCCCCCCCOC4C5CC6CC(C5)CC4C6)cccc3C2=O)C(=O)N1 (stereo not shown) [SIAIS269159, 3-(4-((7-(adamantan-2-yloxy)heptyl)thio)-1-oxoisoindolin-2-yl)piperidine-2,6-dione] | 0.068 |
| O=C1CCC(N2Cc3c(SCCCCCCCCN4CCNCC4)cccc3C2=O)C(=O)N1 (stereo not shown) [SIAIS1216145, 3-(1-oxo-4-((8-(piperazin-1-yl)octyl)thio)isoindolin-2-yl)piperidine-2,6-dione] | 3.86 ± 0.87 |
| O=C1CCC(N2Cc3c(SCCCc4ccc(CNC5CCCCC5)cc4)cccc3C2=O)C(=O)N1 (stereo not shown) [SIAIS1227067, 3-(4-((3-(4-((cyclohexylamino)methyl)phenyl)propyl)thio)-1-oxoisoindolin-2-yl)piperidine-2,6-dione] | 0.11 ± 0.02 |

same assay, conditions: Homo sapiens, MM1.S, 72 h, read-out: IC50 against MM.1S cells (proliferation inhibition)

| Structure (SMILES) | IC50 [nM] |
| --- | --- |
| O=C1CCC(N2Cc3c(SCCCCCCCCN4CCCCC4)cccc3C2=O)C(=O)N1 (stereo not shown) [SIAIS1220009, 3-(1-oxo-4-((8-(piperidin-1-yl)octyl)thio)isoindolin-2-yl)piperidine-2,6-dione] | ~0.12 |
